Results on 6 compounds are retold here after PMC6718442, “11β-Hydroxysteroid dehydrogenases control access of 7β,27-dihydroxycholesterol to retinoid-related orphan receptor γ” (Journal of Lipid Research, 2019).

Test [1] deals with T1, human 11β-HSD1 (Homo sapiens, UniProt P28845).
T1 construct: expressed in transfected cells
Particulars: substrate of 11β-HSD1, cited from earlier work.

For another test, the target named is T2, RORγ (Homo sapiens, UniProt P51449).
T2 sequence (P51449 1-518): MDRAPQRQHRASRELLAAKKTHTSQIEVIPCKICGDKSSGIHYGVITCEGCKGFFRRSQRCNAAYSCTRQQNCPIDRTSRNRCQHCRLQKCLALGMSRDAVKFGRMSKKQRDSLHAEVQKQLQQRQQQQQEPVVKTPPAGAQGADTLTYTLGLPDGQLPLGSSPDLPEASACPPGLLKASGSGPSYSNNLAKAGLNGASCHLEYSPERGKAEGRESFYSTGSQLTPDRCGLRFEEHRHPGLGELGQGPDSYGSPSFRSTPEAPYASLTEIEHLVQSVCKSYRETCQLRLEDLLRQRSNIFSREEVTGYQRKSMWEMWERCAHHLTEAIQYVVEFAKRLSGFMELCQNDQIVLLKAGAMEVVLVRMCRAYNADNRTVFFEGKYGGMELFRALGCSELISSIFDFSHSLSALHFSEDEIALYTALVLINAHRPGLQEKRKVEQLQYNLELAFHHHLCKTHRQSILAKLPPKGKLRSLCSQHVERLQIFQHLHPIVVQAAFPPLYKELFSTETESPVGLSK
The test is described as follows: Glucose-6-phosphatase luciferase reporter in SW-620 cells overexpressing RORγ (preliminary). It is filed as cell-based. Also on record: expressed in transfected cells; host or cells: SW-620. Particulars: inhibition of 11β-HSD2 by GA in SW-620 cells, trend. (Reporter assays use an easily measured gene product as a stand-in for the process of interest.)

Test [2] has as its target T3, 11β-HSD2 (Homo sapiens, UniProt P80365).
T3 construct: expressed in transfected cells
T3 sequence (P80365 1-405): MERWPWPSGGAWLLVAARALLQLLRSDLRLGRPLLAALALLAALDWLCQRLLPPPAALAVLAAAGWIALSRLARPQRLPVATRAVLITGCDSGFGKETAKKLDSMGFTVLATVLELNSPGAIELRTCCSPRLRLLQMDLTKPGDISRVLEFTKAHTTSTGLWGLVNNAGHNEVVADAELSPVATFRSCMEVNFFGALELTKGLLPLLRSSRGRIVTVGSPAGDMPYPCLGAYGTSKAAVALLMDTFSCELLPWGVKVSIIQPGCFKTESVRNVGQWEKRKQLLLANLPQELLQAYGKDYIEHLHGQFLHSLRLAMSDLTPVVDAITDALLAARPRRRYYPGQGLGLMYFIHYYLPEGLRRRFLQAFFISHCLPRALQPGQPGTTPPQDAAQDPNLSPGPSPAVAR
Set-up: method as in PMID 30902677. Particulars: intact cells, oxidation by 11β-HSD2, ref [46], cited from earlier work.

Test [3] concerns the target T3, 11β-HSD2. Particulars: substrate of 11β-HSD2, ref [34], cited from earlier work.
The target of test [4] is T1, human 11β-HSD1. Also on record: method as in PMID 30902677. Particulars: intact cells, oxoreduction by 11β-HSD1, ref [46], cited from earlier work.

SMILES strings stand for the structures. Read-outs that look alike come from different tables or passages of the source.

T1 sequence (P28845 whole entry): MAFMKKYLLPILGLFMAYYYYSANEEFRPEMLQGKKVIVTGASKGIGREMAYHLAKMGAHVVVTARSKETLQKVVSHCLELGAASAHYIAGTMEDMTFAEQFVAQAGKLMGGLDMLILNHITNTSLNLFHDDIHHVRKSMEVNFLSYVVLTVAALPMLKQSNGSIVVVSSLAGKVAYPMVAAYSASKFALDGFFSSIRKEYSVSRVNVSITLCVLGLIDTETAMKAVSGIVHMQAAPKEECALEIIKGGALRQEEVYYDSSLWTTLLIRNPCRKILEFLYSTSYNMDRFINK

For `CC(C)CCC[C@@H](C)[C@H]1CC[C@H]2[C@@H]3C(=O)C=C4C[C@@H](O)CC[C@]4(C)[C@H]3CC[C@]12C` [7kC, 7-ketocholesterol], the KMapp on human 11β-HSD1 [1] (ref [19]) is listed as about 500 nM.
For the compound `C[C@H](CCC(=O)O)[C@H]1CC[C@H]2[C@@H]3C(=O)C[C@@H]4C[C@H](O)CC[C@]4(C)[C@H]3CC[C@]12C` [7oxoLCA, 7-oxolithocholic acid], on human 11β-HSD1 [1] (ref [49]), the KMapp was about 1000 nM.
For the compound `C[C@]12CC(=O)[C@H]3[C@@H](CCC4=CC(=O)CC[C@@]43C)[C@@H]1CC[C@@H]2C(=O)CO` [11-DHC, 11-dehydrocorticosterone], at human 11β-HSD1 [1] (ref [19], [34]), the KMapp was 250 to 500 nM.
For the compound `CC1(C)[C@@H](O)CC[C@]2(C)[C@H]3C(=O)C=C4[C@@H]5C[C@@](C)(C(=O)O)CC[C@]5(C)CC[C@@]4(C)[C@]3(C)CC[C@@H]12` [GA, glycyrrhetinic acid], the “Increase of RORγ activity compared with cells treated with 7β27OHC only” value on RORγ was “approximately 10%”.
Turning to `C[C@]12CCC(=O)C=C1CC[C@@H]1[C@@H]2[C@@H](O)C[C@@]2(C)[C@H]1CC[C@]2(O)C(=O)CO` [cortisol], the Vapp cell intact at 11β-HSD2 [2] is 1.01 ± 0.35 nmol·h^−1·mg total protein^−1; at 11β-HSD2 [2] (listed as Cortisol) it was 1.01 ± 0.35 ([46]) nmol·h^−1·mg total protein^−1. Besides, the KMapp was about 200 nM on 11β-HSD2 [3] and 200 ([34]) nM on 11β-HSD2 [3] (listed as Cortisol).
Take `C[C@]12CCC(=O)C=C1CC[C@@H]1[C@@H]2C(=O)C[C@@]2(C)[C@H]1CC[C@]2(O)C(=O)CO` [cortisone, reference compound]: the Vapp cell intact was 1.59 ± 0.25 nmol·h^−1·mg total protein^−1 at human 11β-HSD1 [4] and 1.59 ± 0.25 ([46]) nmol·h^−1·mg total protein^−1 on human 11β-HSD1 [4] (listed as Cortisone). Further, the KMapp on human 11β-HSD1 [1] (ref [19], [34]) was 250 to 500 nM; on human 11β-HSD1 [1] (ref [19], [34], listed as Cortisone) it was 250–500 ([19], [34]) nM.
